# Laboratory results reported in patent US4923813A, “Monoclonal antibody-based immunoassay for cyclic DNA adducts resulting from exposure to crotonaldehyde or acrolein” (American Health Foundation, priority 1988, dated 1990).
# Key:
# [1] = tested on: monoclonal antibody CA3; experiment: competitive ELISA, inhibition of binding of antibody CA3 to structure 1a,b-KLH conjugate; set-up: species or system mouse; settings: for pmol of compound needed for 50% inhibition of binding in the competitive ELISA, CA3: plate coated with structure 1a,b-KLH conjugate
# Text: (§1) Screening for Antibody Production. In order to screen the fused cells for the production of antibody specific for the cyclic deoxyguanosine adducts, an enzyme-linked immunosorbent assay ("ELISA") may be used. ELISA links soluble antigens to insoluble antibodies or soluble antibodies to solid phase antigens in a manner that allows both immunolgical and enzymatic activity to be retained.
# (§2) ELISA techniques for antigen or antibody quantification are well-known to the art. By way of example, wells of a 96-well polystyrene ELISA plate may be coated with 10 ng of structure a, b-KLH conjugate, diluted in Phosphate buffered saline (PBS), for 1 h at room temperature. The wells may be washed twice with PBS containing 0.1% Tween 20 and twice with distilled H2 O. From this point all reagents may be diluted in PBS containing 0.1% bovine serum albumin ("BSA"). Wells are filled with 50 μl of PBS-BSA followed by 50 μl of culture supernatant and incubated at room temperature for 1 h. For competitive ELISA, adduct standards or test samples are mixed with the monoclonal antibody and added to the well. The wells are washed and 100 μl of alkaline phosphatase-labeled goat anti-mouse 1 gG antibody (Kirkegaard & Perry Laboratories, Inc., Gaithersburg, Md.) are added to each well and incubated at room temperature for 1 h. After washing, 100 μl of substrate solution (1 mg/ml of p-nitrophenylphosphate in 1M diethanolamine buffer, pH 9.8) are added to each well and incubated at room temperature for 30 min. […] In quantitative experiments the concentration of unknown samples may be determined by comparison to a standard curve relating the log of the inhibitor concentration to the logit of the percentage of inhibition [formula]
# (§3) Using the above-identified procedures, a single mouse was boosted with the structure 1a,b-KLH conjugate for 4 consecutive days and the fusion was performed on the fifth day.
# [2] = biological target: monoclonal antibody CA2; experiment: competitive ELISA, inhibition of binding of antibody CA2 to structure 1a,b-KLH conjugate; set-up: species or system mouse; settings: for pmol of compound needed for 50% inhibition of binding in the competitive ELISA, CA2: plate coated with structure 1a,b-KLH conjugate
# Text: as §1, §2, §3
# [3] = tested on: monoclonal antibody CA1; experiment: competitive ELISA, inhibition of binding of antibody CA1 to structure 1a,b-KLH conjugate; set-up: species or system mouse; settings: for pmol of compound needed for 50% inhibition of binding in the competitive ELISA, CA1: plate coated with structure 1a,b-KLH conjugate
# Text: as §1, §2, §3
# [4] = tested on: the four antibodies (CA1, CA2, CA3, CA4); experiment: competitive ELISA, reactivity of the four antibodies; assay type: binding, mouse; settings: all four antibodies; O6-methyldeoxyguanosine: with the exception of CA3
# Text: as §1, §2, §3
# [5] = biological target: monoclonal antibody CA4; experiment: competitive ELISA, inhibition of binding of antibody CA4 to structure 1a,b-KLH conjugate; set-up: species or system mouse; settings: plate coated with structure 1a,b-KLH conjugate
# Text: as §1, §2, §3
SMILES,"pmol of compound needed for 50% inhibition of binding in the competitive ELISA, CA3 [1]","pmol of compound needed for 50% inhibition of binding in the competitive ELISA, CA2 [2]",affinity of antibody CA1 [3],"pmol of compound needed for 50% inhibition of binding in the competitive ELISA, CA1 [3]","pmol of compound needed for 50% inhibition of binding in the competitive ELISA, CA4 [5]",specificity of antibody CA2 [2],affinity / reactivity of antibody CA3 [1],reactivity / cross-reactivity with the four antibodies [4]
"CC1CC(O)n2c(nc3[nH]cnc3c2=O)N1 (stereo not drawn) [1,base]",143 pmol,69 pmol,,8.6 pmol,30 pmol,,,Cross-reactivity
"Nc1ncnc2c1ncn2[C@H]1C[C@H](O)[C@@H](CO)O1 [Deoxyadenosine, reference compound]","> 80,000 pmol","> 80,000 pmol",,"> 80,000 pmol","> 80,000 pmol",,,
"Nc1ccn([C@H]2C[C@H](O)[C@@H](CO)O2)c(=O)n1 [Deoxycytosine, reference compound]","> 110,000 pmol","> 110,000 pmol",,"> 110,000 pmol","> 110,000 pmol",,,
"Nc1nc2c(ncn2[C@H]2C[C@H](O)[C@@H](CO)O2)c(=O)[nH]1 [Deoxyguanosine, reference compound]",14 pmol,698 pmol,,"2,564 pmol","5,370 pmol",,,significant cross-reactivity
"Cc1cn([C@H]2C[C@H](O)[C@@H](CO)O2)c(=O)[nH]c1=O [Thymidine, reference compound]","> 100,000 pmol","> 100,000 pmol",,"> 100,000 pmol","> 100,000 pmol",,,
COc1nc(N)nc2c1ncn2[C@H]1C[C@H](O)[C@@H](CO)O1 [reference compound],235 pmol,"51,270 pmol",,"56,790 pmol","> 100,000 pmol",,,unreactive

# Continued, in another order:
"pmol of compound needed for 50% inhibition of binding in the competitive ELISA, CA3 [1]","pmol of compound needed for 50% inhibition of binding in the competitive ELISA, CA2 [2]",affinity of antibody CA1 [3],"pmol of compound needed for 50% inhibition of binding in the competitive ELISA, CA1 [3]","pmol of compound needed for 50% inhibition of binding in the competitive ELISA, CA4 [5]",specificity of antibody CA2 [2],SMILES,affinity / reactivity of antibody CA3 [1],reactivity / cross-reactivity with the four antibodies [4]
0.2 pmol,17 pmol,lower affinity,12.8 pmol,10 pmol,,"CC1CC(O)n2c(nc3c(ncn3[C@H]3C[C@H](O)[C@@H](CO)O3)c2=O)N1 (mixture of isomers) [1a, 8R, 6R- and 8S, 6S-3-(2-deoxy-3-β-erythro-pentofuranosyl) 5,6,7,8-tetrahydro-8-hydroxy-6-methylpyrimido(1,2-a)purine-10(3H)one]",highest affinity of the four antibodies,strongest
10 pmol,0.4 pmol,high apparent affinity,0.2 pmol,0.9 pmol,,"CC1CC(O)n2c(nc3c(ncn3[C@H]3C[C@H](O)[C@@H](CO)O3)c2=O)N1 (mixture of isomers) [1b, 8R, 6R- and 8S, 6S-3-(2-deoxy-3-β-erythro-pentofuranosyl) 5,6,7,8-tetrahydro-8-hydroxy-6-methylpyrimido(1,2-a)purine-10(3H)one]",,strongest
5 pmol,9 pmol,,90 pmol,112 pmol,,O=c1c2ncn([C@H]3C[C@H](O)[C@@H](CO)O3)c2nc2n1CCC(O)N2 (stereo partly drawn) [1c],less reactive than the above three molecules,Cross-reactivity
0.9 pmol,0.2 pmol,,0.8 pmol,7.9 pmol,most specific,O=c1c2ncn([C@H]3C[C@H](O)[C@@H](CO)O3)c2nc2n1C(O)CCN2 (stereo partly drawn) [1d],,Cross-reactivity
22 pmol,156 pmol,,113 pmol,"41,470 pmol",,O=c1c2ncn([C@H]3C[C@H](O)[C@@H](CO)O3)c2nc2n1C(O)C(O)N2 (stereo partly drawn) [1e],,Cross-reactivity
